Series [1] concerns the target T1, cloned human and rat GPR-14 (UniProt Q9UKP6).
T1 sequence (Q9UKP6 1-389): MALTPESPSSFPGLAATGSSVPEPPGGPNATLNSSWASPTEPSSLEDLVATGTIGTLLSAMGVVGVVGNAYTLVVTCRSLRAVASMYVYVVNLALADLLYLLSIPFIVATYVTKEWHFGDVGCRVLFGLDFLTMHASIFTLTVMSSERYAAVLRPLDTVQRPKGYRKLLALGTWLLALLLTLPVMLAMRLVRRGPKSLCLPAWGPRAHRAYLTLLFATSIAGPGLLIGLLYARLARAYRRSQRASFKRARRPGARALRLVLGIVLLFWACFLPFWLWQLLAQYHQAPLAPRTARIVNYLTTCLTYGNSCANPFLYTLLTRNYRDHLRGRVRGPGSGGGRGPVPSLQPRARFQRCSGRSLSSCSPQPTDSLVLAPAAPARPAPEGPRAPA
As to the kind of experiment: Radioligand binding ([125I] h-U-II) to HEK-293 cell membranes containing GPR-14. The settings on record: HEK-293 membranes, 200 pM [125I] h-U-II; human or rat receptor not specified. The method, then: HEK-293 cell membranes containing stable cloned human and rat GPR-14 (20 ug/assay) were incubated with 200 pM [125I] h-U-II (200 Ci/mmol^−1 in the presence of increasing concentrations of test compounds in DMSO (0.1 nM to 10 uM), in a final incubation volume of 200 ul (20 mM Tris-HCl, 5 mM MgCl2). Incubation was done for 30 minutes at room temperature followed by filtration GF/B filters with Brandel cell harvester. ^125I labeled U-U binding was quantitated by gamma counting. Nonspecific binding was defined by ^1251I U-II binding in the presence of 100 nM of unlabeled human U-II. Analysis of the data was performed by nonlinear least square fitting.

Series [2] concerns rat-isolated aorta. The settings on record: cited from earlier work.

Each structure is given as a SMILES string.

As a reminder, the melting point is the temperature, or range, at which the solid turns liquid. What is called Ki is a dissociation constant, usually derived from enzyme kinetics or from competition with a known ligand. A higher Ki goes with a looser hold on the target.

In the case of `COc1ccc(S(=O)(=O)Nc2ccc(Cl)c(OCCN(C)C)c2)cc1OC` [Example 1, N-[4-Chloro-3-(2-dimethylamino-ethoxy)phenyl]-3,4-dimethoxy-benzenesulfonamide], the melting point lay in the range of 228 to 229 °C.

In series [1], `CN(C)CCOc1cc(NS(=O)(=O)c2ccc(Br)cc2)ccc1I` [Example 8, 4-Bromo-N-[4-iodo-3-(2-dimethylamino-ethoxy)-phenyl]-benzenesulfonamide] came in with a Ki of 1300 nM. That is a single-digit micromolar value.

As for `CC(C)[C@H](NC(=O)[C@@H]1CSSC[C@H](NC(=O)[C@H](CC(=O)O)NC(=O)[C@@H]2CCCN2C(=O)[C@@H](NC(=O)[C@@H](N)CCC(=O)O)[C@@H](C)O)C(=O)N[C@@H](Cc2ccccc2)C(=O)N[C@@H](Cc2c[nH]c3ccccc23)C(=O)N[C@@H](CCCCN)C(=O)N[C@@H](Cc2ccc(O)cc2)C(=O)N1)C(=O)O` [Human Urotensin-II], the contractile activity result in series [2] is recorded as “most potent contractile agonist identified to date”.

The values above are taken from patent US20030100580A1, “Urotensin-II receptor antagonists” (priority 2002, published 2003).
